# Literature values, collected in patent publication US20170173097A1, “COMPOSITIONS FOR ENHANCING DETOXIFICATION AND USES THEREOF” (Specialty Nutrition Group, Inc., priority 2014, published 2017).
# Where two headings read alike, the source gives them in different places.
# Test system: beta-glucuronidase
smiles,measurement,setting,value
O=C([O-])[C@@H](O)[C@@H](O)[C@H](O)[C@@H](O)C(=O)[O-].[Ca+2] [calcium D-glucarate],inhibition of beta-glucuronidase,in the blood,57%
same,inhibition of beta-glucuronidase,in the intestines,39%
same,inhibition of beta-glucuronidase,in the liver,44%
same,inhibition of beta-glucuronidase,in the lungs,37%
